Test results from patent publication US20100298141A1, “SUBSTITUTED PYRIDINE N-OXIDE HERBICIDES” (E. I. DU PONT DE NEMOURS AND COMPANY, priority 2007, published 2010).

What was measured:
barnyardgrass = experiment: Test A pre-/postemergence greenhouse test; format: in vivo, Echinochloa crus-galli; conditions: for Plant response rating, Barnyardgrass: 0 to 100 scale where 0 is no effect and 100 is complete control; for Barnyardgrass plant response rating: 0 to 100 scale
Method in brief: (§1)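 Test compounds in non-phytotoxic solvent with surfactant were applied as a preemergence soil spray to seeded loam/sand pots and, concurrently, postemergence to plants at 2–10 cm, one- to two-leaf stage. About ten days in greenhouse, then injury visually rated against untreated controls.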

crabgrass [1] = experiment: Test A pre-/postemergence greenhouse test; format: in vivo, Digitaria sanguinalis; conditions: for Plant response rating, Crabgrass, Large: 0 to 100 scale where 0 is no effect and 100 is complete control; for Crabgrass, Large plant response rating: 0 to 100 scale
Method in brief: as §1

wheat = experiment: Test A pre-/postemergence greenhouse test; format: in vivo, Triticum aestivum; conditions: for Plant response rating, Wheat: 0 to 100 scale where 0 is no effect and 100 is complete control; for Wheat plant response rating: 0 to 100 scale
Method in brief: as §1

corn [2] = experiment: Test A pre-/postemergence greenhouse test; format: in vivo, Zea mays; conditions: for Plant response rating, Corn: 0 to 100 scale where 0 is no effect and 100 is complete control; for Corn plant response rating: 0 to 100 scale
Method in brief: as §1

Italian ryegrass = experiment: Test C pre-/postemergence test; format: in vivo, Lolium multiflorum
Method in brief: (§2)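 Seeds were planted and treated preemergence with test chemical in a non-phytotoxic solvent mixture containing surfactant. Postemergence applications of the same formulation went onto plants 2 to 18 cm tall (1- to 4-leaf stage). A dash marks no test result.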

Surinam grass = experiment: Test C pre-/postemergence test; format: in vivo, Brachiaria decumbens
Method in brief: as §2

corn [3] = experiment: Test C pre-/postemergence test; format: in vivo, Zea mays
Method in brief: as §2

crabgrass [4] = experiment: Test C pre-/postemergence test; format: in vivo, Digitaria sanguinalis
Method in brief: as §2

giant foxtail = experiment: Test C pre-/postemergence test; format: in vivo, Setaria faberii
Method in brief: as §2

Goosegrass = experiment: Test C pre-/postemergence test; format: in vivo, Eleusin indica
Method in brief: as §2

johnsongrass = experiment: Test C pre-/postemergence test; format: in vivo, Sorghum halepense
Method in brief: as §2

morningglory = experiment: Test C pre-/postemergence test; format: in vivo, Ipomoea coccinea
Method in brief: as §2

eastern black nightshade = experiment: Test C pre-/postemergence test; format: in vivo, Solanum ptycanthum
Method in brief: as §2

pigweed = experiment: Test C pre-/postemergence test; format: in vivo, Amaranthus retroflexus
Method in brief: as §2

[5] = tested on: common (oilseed) sunflower; experiment: Test C pre-/postemergence test; format: in vivo, Helianthus annuus
Method in brief: as §2

velvetleaf = experiment: Test C pre-/postemergence test; format: in vivo, Abutilon theophrasti
Method in brief: as §2

umbrella sedge = experiment: Test C flooded paddy test; format: in vivo, Cyperus difformis; conditions: Flood
Method in brief: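 Visual injury ratings against untreated controls, taken 13 to 15 days after compound was added to paddy water standing 3 cm above the soil.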

[6] = Postemergence, 500 g ai/ha, 0 is no effect, 100 is complete control
[7] = Preemergence, 125 g ai/ha, 0 no effect, 100 complete control
[8] = 62 g ai/ha, Preemergence, scale 0 to 100
[9] = 125 g ai/ha, preemergence, scale 0 (no effect) to 100 (complete control)
[10] = Postemergence, 125 g ai/ha, scale 0 to 100, 0 no effect, 100 complete control
[11] = Postemergence, 250 g ai/ha, scale 0 to 100, 0 no effect, 100 complete control
[12] = Preemergence, 31 g ai/ha, scale 0 to 100 (0 no effect, 100 complete control)
[13] = preemergence, 250 g ai/ha, scale 0 (no effect) to 100 (complete control)
[14] = Postemergence, 62 g ai/ha, scale 0 to 100, 0 no effect, 100 complete control

Cn1nc(C(F)(F)F)c(C[S+]([O-])c2ccc(F)c[n+]2[O-])c1OC(F)F (stereo not shown) [Compound 58]
70: Wheat plant response rating (wheat; [6]) | Corn plant response rating (corn [2]; [6]) | Ryegrass, Italian plant response rating (Italian ryegrass; [8]) | Plant response rating, Ryegrass, Italian (Italian ryegrass; [10]) | Plant response rating, Surinam Grass (Surinam grass; [12])
35: Sunflower plant response rating [5, 8] | Sunflower plant response rating [5, 9]
98: Ryegrass, Italian plant response rating (Italian ryegrass; [9]) | Morningglory plant response rating (morningglory; [8]) | Morningglory plant response rating (morningglory; [9])
10: Plant response rating, Surinam Grass (Surinam grass; [10]) | Plant response rating, Foxtail, Giant (giant foxtail; [14]) | Plant response rating, Johnsongrass (johnsongrass; [10]) | Plant response rating, Pigweed (pigweed; [11]) | Plant response rating, Sunflower [5, 12]
40: Corn plant response rating (corn [2]; [7]) | Plant response rating (0 to 100), Ryegrass, Italian (Italian ryegrass; Postemergence, 62 g ai/ha) | Plant response rating, Ryegrass, Italian (Italian ryegrass; [12]) | Plant response rating, Foxtail, Giant (giant foxtail; [10]) | Plant response rating, Foxtail, Giant (giant foxtail; [12])
100: Plant response rating, Crabgrass, Large (crabgrass [1]; Preemergence, 500 g ai/ha) | Plant response rating, Wheat (wheat; Preemergence, 500 g ai/ha) | Ryegrass, Italian plant response rating (Italian ryegrass; [13]) | Surinam Grass plant response rating (Surinam grass; [13]) | Corn plant response rating (corn [3]; [8]) | Corn plant response rating (corn [3]; [9]) | Corn plant response rating (corn [3]; [13]) | Crabgrass, Large plant response rating (crabgrass [4]; [8]) | Crabgrass, Large plant response rating (crabgrass [4]; [9]) | Crabgrass, Large plant response rating (crabgrass [4]; [13]) | Foxtail, Giant plant response rating (giant foxtail; [8]) | Foxtail, Giant plant response rating (giant foxtail; [9]) | Foxtail, Giant plant response rating (giant foxtail; [13]) | Goosegrass plant response rating (Goosegrass; [9]) | Goosegrass plant response rating (Goosegrass; [13]) | Johnsongrass plant response rating (johnsongrass; [9]) | Johnsongrass plant response rating (johnsongrass; [13]) | Morningglory plant response rating (morningglory; [13]) | Nightshade plant response rating (eastern black nightshade; [8]) | Nightshade plant response rating (eastern black nightshade; [9]) | Plant response rating, Nightshade (eastern black nightshade; [12]) | Nightshade plant response rating (eastern black nightshade; [13]) | Pigweed plant response rating (pigweed; [8]) | Pigweed plant response rating (pigweed; [9]) | Plant response rating, Pigweed (pigweed; [12]) | Pigweed plant response rating (pigweed; [13]) | Velvetleaf plant response rating (velvetleaf; [9]) | Velvetleaf plant response rating (velvetleaf; [13])
75: Plant response rating, Corn (corn [3]; [12]) | Velvetleaf plant response rating (velvetleaf; [8])
85: Surinam Grass plant response rating (Surinam grass; [9]) | Plant response rating, Johnsongrass (johnsongrass; [12]) | Sunflower plant response rating [5, 13]
5: Plant response rating, Goosegrass (Goosegrass; [10]) | Plant response rating, Morningglory (morningglory; [10]) | Plant response rating, Morningglory (morningglory; [11]) | Plant response rating, Pigweed (pigweed; [10]) | Plant response rating, Velvetleaf (velvetleaf; [10]) | Plant response rating, Velvetleaf (velvetleaf; [11]) | Plant response rating, Velvetleaf (velvetleaf; [12])
45: Plant response rating, Surinam Grass (Surinam grass; [11]) | Plant response rating, Crabgrass, Large (crabgrass [4]; [11])
90: Barnyardgrass plant response rating (barnyardgrass; [6]) | Barnyardgrass plant response rating (barnyardgrass; [7]) | Plant response rating, Barnyardgrass (barnyardgrass; Preemergence, 500 g ai/ha) | Crabgrass, Large plant response rating (crabgrass [1]; [6]) | Plant response rating, Corn (corn [2]; Preemergence, 500 g ai/ha) | Plant response rating, Ryegrass, Italian (Italian ryegrass; [11]) | Goosegrass plant response rating (Goosegrass; [8])
60: Plant response rating, Wheat (wheat; Postemergence, 125 g ai/ha) | Wheat plant response rating (wheat; [7]) | Plant response rating, Foxtail, Giant (giant foxtail; [11]) | Plant response rating, Goosegrass (Goosegrass; [11]) | Plant response rating, Johnsongrass (johnsongrass; [11])
0: Plant response rating (0 to 100), Ryegrass, Italian (Italian ryegrass; Postemergence, 31 g ai/ha) | Plant response rating (0 to 100), Surinam Grass (Surinam grass; Postemergence, 31 g ai/ha) | Plant response rating (0 to 100), Surinam Grass (Surinam grass; Postemergence, 62 g ai/ha) | Plant response rating (0 to 100), Corn (corn [3]; Postemergence, 31 g ai/ha) | Plant response rating, Corn (corn [3]; [14]) | Plant response rating, Corn (corn [3]; [10]) | Plant response rating, Corn (corn [3]; [11]) | Plant response rating (0 to 100), Crabgrass, Large (crabgrass [4]; Postemergence, 31 g ai/ha) | Plant response rating, Crabgrass, Large (crabgrass [4]; [14]) | Plant response rating, Crabgrass, Large (crabgrass [4]; [10]) | Plant response rating (0 to 100), Foxtail, Giant (giant foxtail; Postemergence, 31 g ai/ha) | Plant response rating (0 to 100), Goosegrass (Goosegrass; Postemergence, 31 g ai/ha) | Plant response rating, Goosegrass (Goosegrass; [14]) | Plant response rating (0 to 100), Johnsongrass (johnsongrass; Postemergence, 31 g ai/ha) | Plant response rating, Johnsongrass (johnsongrass; [14]) | Plant response rating (0 to 100), Morningglory (morningglory; Postemergence, 31 g ai/ha) | Plant response rating, Morningglory (morningglory; [14]) | Plant response rating (0 to 100), Pigweed (pigweed; Postemergence, 31 g ai/ha) | Plant response rating (0 to 100), Pigweed (pigweed; Postemergence, 62 g ai/ha) | Plant response rating (0 to 100), Velvetleaf (velvetleaf; Postemergence, 31 g ai/ha) | Plant response rating (0 to 100), Velvetleaf (velvetleaf; Postemergence, 62 g ai/ha)
80: Plant response rating, Barnyardgrass (barnyardgrass; Postemergence, 125 g ai/ha) | Plant response rating, Crabgrass, Large (crabgrass [1]; Postemergence, 125 g ai/ha) | Crabgrass, Large plant response rating (crabgrass [1]; [7]) | Surinam Grass plant response rating (Surinam grass; [8]) | Plant response rating, Goosegrass (Goosegrass; [12]) | Plant response rating, Morningglory (morningglory; [12]) | Plant response rating, Sedge, Umbrella (umbrella sedge; 62 g ai/ha, scale 0 to 100 (0 no effect, 100 complete control)) | Plant response rating, Sedge, Umbrella (umbrella sedge; 250 g ai/ha, scale 0 to 100, 0 no effect, 100 complete control, 13 to 15 days)
95: Johnsongrass plant response rating (johnsongrass; [8])
50: Plant response rating, Corn (corn [2]; Postemergence, 125 g ai/ha) | Plant response rating, Crabgrass, Large (crabgrass [4]; [12])
